# Measured values reported in patent US20230293551A1, “USE OF OXYGENATED CHOLESTEROL SULFATES FOR TREATING AUTOIMMUNE CONDITIONS” (Durect Corporation, priority 2020, published 2023).
# Columns and labels:
# [1] = tested on: DNMT1/3a/3b; test: Enzyme kinetic study, overall statements on DNMT1/3a/3b activities; format: biochemical
# Experimental: (§3) For the DNMT1 activity assay, the substrate solution, 0.001 mg/ml Poly(dI-dC):Poly(dI-dC) in 50 mM Tris-HCl, pH 7.5, 50 mM NaCl, 5 mM EDTA, 5 mM DTT, 1 mM PMSF, 5% glycerol, 0.01% Brij35, 1% DMSO was used. For the DNMT3a/3b activity assay, 0.0075 mg/ml Lambda DNA in 50 mM Tris-HCl, pH 7.5, 50 mM NaCl, 5 mM EDTA, 5 mM DTT, 1 mM PMSF, 5% glycerol, 1% DMSO, was used. The indicated DNMT1, DNMT3a, or DNMT3b was added to the appropriate substrate solution and gently mixed. […] The mixtures were first incubated for 15 min, then ^3H-SAM was added to the reaction mixture to initiate the reaction, and the mixture was incubated for 60 min at 30° C. Following incubation, the reaction mixture was finally transferred to filter-paper for detection of radioactivity counts.
# [2] = Excretion mass balance after single intravenous dose; format: in vivo, male Sprague Dawley rats; details: intravenous 10 mg/kg, over 168 hours
# Excerpt: (§1) The objectives of this study were to determine the plasma pharmacokinetics of [4-^14C]-25HC3S-derived radioactivity in male Sprague Dawley rats, determine the routes of elimination and excretion mass balance of [4-^14C]-25HC3S-derived radioactivity in male Sprague Dawley rats, determine the tissue distribution and tissue pharmacokinetics of [4-^14C]-25HC3S-derived radioactivity using quantitative whole body autoradiography methods in male Sprague Dawley and Long Evans rats following a single intravenous (bolus) dose, and to provide plasma, urine, and fecal homogenate samples for metabolite profiling of [4-^14C]-25HC3S-derived radioactivity.
# (§2) Nine male Sprague Dawley rats (Group 1) were designated for the pharmacokinetic phase, 3 male Sprague Dawley rats (Group 2) for the excretion mass balance phase, and 7 male Sprague Dawley rats (Group 3) and 9 male Long Evans rats (Group 4) for the tissue distribution phase. All animals received a single intravenous dose of [^14C]-25HC3S at 10 mg/kg and a target radioactivity of 225 µCi/kg. […] Following blood collection, animals were euthanized by CO2 inhalation and carcasses frozen in a dry ice/hexane bath for processing by quantitative whole body autoradiography. Whole blood, plasma, urine, feces, cage rinse, and cage wash were analyzed for total radioactivity by liquid scintillation counting.
# [3] = Tissue distribution by quantitative whole body autoradiography after intravenous dose; format: in vivo, male Sprague Dawley rats; details: intravenous 10 mg/kg
# Excerpt: as §1
# as §2, with “µCi/kg. Blood samples were collected from all Group 1 animals at approximately 0.083, 0.25, 0.5, 1, 2, 4, 8, 12, 24, 48, and 72 hours post-dose. Urine and feces were collected from all Group 2 animals periodically through 168 hours post-dose.” for “µCi/kg.”
# [4] = Plasma pharmacokinetics of radioactivity after single intravenous dose; format: in vivo, male Sprague Dawley rats; details: single intravenous (bolus) dose 10 mg/kg
# Excerpt: as §1, §2
# [5] = Tissue distribution by quantitative whole body autoradiography after oral dose; format: in vivo, male Sprague Dawley rats; details: oral 75 mg/kg
# [6] = Tissue distribution after intravenous dose in pigmented rats; format: in vivo, male Long Evans rats; details: intravenous 10 mg/kg, first 168 hours post-dose
# Excerpt: as §1, §2
# [7] = Plasma pharmacokinetics of radioactivity after single oral (gavage) dose; format: in vivo, rats; details: single oral (gavage) dose 75 mg/kg
# Experimental: The terminal elimination phase T½ was 27.3 hours.
# [8] = Metabolite profiling of plasma, urine, feces after intravenous dose; format: in vivo, rats
# Experimental: as §2, with “µCi/kg. Blood samples were collected from all Group 1 animals at approximately 0.083, 0.25, 0.5, 1, 2, 4, 8, 12, 24, 48, and 72 hours post-dose. Urine and feces were collected from all Group 2 animals periodically through 168 hours post-dose.” for “µCi/kg.”
# [9] = molecular target: DNMT1 (Homo sapiens, UniProt P26358); test: DNMT1 activity assay (3H-SAM, filter-paper radioactivity); format: biochemical
# DNMT1, sequence (P26358 whole entry, species assumed): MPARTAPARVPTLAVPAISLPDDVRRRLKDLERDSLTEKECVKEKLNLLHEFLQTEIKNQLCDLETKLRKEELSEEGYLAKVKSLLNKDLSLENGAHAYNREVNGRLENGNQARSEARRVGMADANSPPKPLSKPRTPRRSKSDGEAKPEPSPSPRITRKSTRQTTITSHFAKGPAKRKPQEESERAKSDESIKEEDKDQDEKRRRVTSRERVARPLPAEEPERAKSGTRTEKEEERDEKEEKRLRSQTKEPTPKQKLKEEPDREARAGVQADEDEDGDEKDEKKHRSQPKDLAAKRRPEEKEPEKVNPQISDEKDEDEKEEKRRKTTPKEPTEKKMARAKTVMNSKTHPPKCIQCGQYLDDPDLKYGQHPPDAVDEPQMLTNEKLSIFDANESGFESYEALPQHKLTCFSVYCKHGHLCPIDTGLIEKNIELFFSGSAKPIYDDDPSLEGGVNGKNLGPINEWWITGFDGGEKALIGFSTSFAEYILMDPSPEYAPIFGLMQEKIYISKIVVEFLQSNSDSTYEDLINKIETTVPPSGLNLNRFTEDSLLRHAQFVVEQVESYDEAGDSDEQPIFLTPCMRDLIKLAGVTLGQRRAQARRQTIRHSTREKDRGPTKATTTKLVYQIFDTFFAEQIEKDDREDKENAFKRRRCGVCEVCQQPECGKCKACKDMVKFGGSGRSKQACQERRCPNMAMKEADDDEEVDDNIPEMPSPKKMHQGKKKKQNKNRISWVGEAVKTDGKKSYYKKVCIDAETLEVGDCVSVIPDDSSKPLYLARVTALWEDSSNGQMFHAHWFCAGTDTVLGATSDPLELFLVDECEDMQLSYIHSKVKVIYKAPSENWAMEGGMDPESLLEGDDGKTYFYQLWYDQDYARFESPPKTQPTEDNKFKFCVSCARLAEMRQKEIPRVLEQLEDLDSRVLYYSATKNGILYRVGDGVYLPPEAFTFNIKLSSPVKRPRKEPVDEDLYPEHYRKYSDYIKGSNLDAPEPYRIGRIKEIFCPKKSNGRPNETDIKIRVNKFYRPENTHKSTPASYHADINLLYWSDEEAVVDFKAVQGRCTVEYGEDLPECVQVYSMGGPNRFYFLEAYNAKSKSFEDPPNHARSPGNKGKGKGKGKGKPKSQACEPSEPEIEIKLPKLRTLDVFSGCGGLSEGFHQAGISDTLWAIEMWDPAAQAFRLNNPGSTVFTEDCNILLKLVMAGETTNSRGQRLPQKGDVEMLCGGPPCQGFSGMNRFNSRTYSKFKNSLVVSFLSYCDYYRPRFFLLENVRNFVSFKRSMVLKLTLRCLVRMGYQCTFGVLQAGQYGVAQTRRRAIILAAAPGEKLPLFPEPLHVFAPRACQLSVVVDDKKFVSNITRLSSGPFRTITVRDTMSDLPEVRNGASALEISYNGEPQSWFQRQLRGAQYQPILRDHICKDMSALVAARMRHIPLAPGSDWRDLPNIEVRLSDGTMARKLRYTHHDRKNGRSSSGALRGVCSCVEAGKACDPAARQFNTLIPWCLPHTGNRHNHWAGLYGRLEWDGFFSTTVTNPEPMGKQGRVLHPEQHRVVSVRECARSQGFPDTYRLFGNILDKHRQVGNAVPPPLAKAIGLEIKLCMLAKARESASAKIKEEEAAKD
# Experimental: as §3
# [10] = Metabolite profiling of plasma and feces after oral dose; format: in vivo, rats; details: oral 75 mg/kg
# Excerpt: Radiolabeled components in plasma and feces extracts were profiled and identified using radio-high performance liquid chromatography (HPLC) and high performance liquid chromatography/mass spectrometry (HPLC/MS) methods.
molecule,measurement,setting,value
"CC(C)CCC[C@@H](C)[C@H]1CC[C@H]2[C@@H]3CC=C4C[C@@H](OS(=O)(=O)O)CC[C@]4(C)[C@H]3CC[C@]12C [Xol3S, Cholesterol 3-Sulfate, reference compound]",effect on enzymatic activities (DNMTs),[1],did not significantly affect enzymatic activities
C[C@H](CCCC(C)(C)O)[C@H]1CC[C@H]2[C@@H]3CC=C4[14CH2][C@@H](OS(=O)(=O)O)CC[C@]4(C)[C@H]3CC[C@]12C [[4-^14C]-25HC3S],recovered radioactivity in feces,[2],83.0%
same,AUClast in the liver,[3],"≤ 364,000 h.ng/g"
same,plasma:whole blood AUClast ratio,[3],0.79
same,tissue distribution of radioactivity,[3],broadly distributed and detected by quantitative whole body autoradiography in all tissues except the eye (lens)
same,"tissue:plasma ratio, liver",[3]; calculated using AUClast,11.4
same,"tissue:plasma ratio, small intestine (wall)",[3]; calculated using AUClast,7.44
same,terminal elimination phase T½,[4],26.6 h
same,Uveal tract and brain concentrations,[5],approximately 1000 ng equiv./g
same,plasma:whole blood AUClast ratio,[5],1.12
same,tissue Tmax,[5],≤ 6 hours postdose
same,tissue distribution of radioactivity,[5],broadly distributed and detected by quantitative whole body autoradiography in all tissues except the eye (lens)
same,whole blood AUClast,[5],"127,000 h•ng equiv./g"
same,"tissue:plasma ratio, adrenal gland",[5]; calculated using AUClast,6.64
same,"tissue:plasma ratio, liver",[5]; calculated using AUClast,6.96
same,"tissue:plasma ratio, small intestine (wall)",[5]; calculated using AUClast,15.4
same,plasma or whole blood concentrations versus Sprague Dawley rats,[6],no substantial difference in plasma or whole blood concentrations
same,plasma AUClast,[7],"96,400 h•ng equiv./g"
"C[C@H](CCCC(C)(C)O)[C@H]1CC[C@H]2[C@@H]3CC=C4C[C@@H](O)CC[C@]4(C)[C@H]3CC[C@]12C [25HC, 25-Hydroxycholesterol]","detection in plasma, urine, or feces samples",[8],Neither desmosterol sulfate nor 25-hydroxycholesterol was detected
same,activates DNMT-1 activity,[9],8 fold
same,relative observed intensity (ROI) in plasma,[10]; 2 hour postdose plasma,37%
same,% of total dose in feces,[10]; pools 0 to 168 hours postdose,1.9 % of total dose
"C[C@@H](CO)CCC[C@@H](C)[C@H]1CC[C@H]2[C@@H]3CC=C4C[C@@H](O)CC[C@]4(C)[C@H]3CC[C@]12C [27HC, 27-Hydroxycholesterol, reference compound]",effect on enzymatic activities (DNMTs),[1],had no effect on other enzymes
desmosterol sulfate,"detection in plasma, urine, or feces samples",[8],Neither desmosterol sulfate nor 25-hydroxycholesterol was detected
"C[C@H](CCCC(C)(C)O)[C@H]1CC[C@H]2[C@@H]3CC=C4C[C@@H](OS(=O)(=O)O)CC[C@]4(C)[C@H]3CC[C@]12C [25HC3S, 25-hydroxycholesterol-3-sulfate]",% of dose in feces,[8]; pools 0 to 48 hours postdose,2 % of dose
same,share of the exposure (AUC) to 25HC3S related radioactivity in plasma,[8]; up to 1 hour postdose,approximately 54%
same,effect on enzymatic activities (DNMTs),[1],potent inhibitors of DNMTs
same,IC50,"[1]; DNMT-1, 3a, 3b, read-out: IC50s (kinetic study)",1 to 10 µM
"CC(C)CCC[C@@H](C)[C@H]1CC[C@H]2[C@@H]3CC=C4C[C@@H](O)CC[C@]4(C)[C@H]3CC[C@]12C [Xol, Cholesterol]",effect on enzymatic activities (DNMTs),[1],did not significantly affect enzymatic activities
"CC(CO)CCC[C@@H](C)[C@H]1CC[C@H]2[C@@H]3CC=C4C[C@@H](OS(=O)(=O)O)CC[C@]4(C)[C@H]3CC[C@]12C (stereo partly drawn) [27HC3S, 27-hydroxycholesterol-3-sulfate]",effect on enzymatic activities (DNMTs),[1],potent inhibitors of DNMTs
